Results as given in patent US20260015363A1, “SUBSTITUTED PYRIMIDINE-FUSED RING INHIBITOR, METHOD FOR PREPARING SAME, AND USE THEREOF” (Suzhou Zelgen Biopharmaceuticals Co., Ltd., priority 2022, published 2026).
Where a name gives a salt, the structure may show the parent alone. Read-outs that look alike come from different tables or passages of the source.

Legend:
MNK1 (WT) = experiment: Cell proliferation inhibition assay (CellTiter-Glo 3D), MNK1; assay type: cell-based, human; details: MNK1 (WT) cells, 7 days
Method: (§1) Positive control: MRTX1133
(§2) • (a) The cells were thawed in T75 cell culture flasks: • (b) When 80%-90% cell confluence was achieved, the cells were passaged.
(§3) The diluted test compound was added to a 384-well cell culture plate using a nanoliter pipetting system, and replicate wells were set. An equal volume of medium was added to the positive control group; an equal volume of DMSO was added to the negative control group. The plate was centrifuged at 1000 rpm at room temperature for 1 min.
(§4) The cells were seeded into a) 384-well culture plate. An equal volume of cells was added to the negative control group, and only an equal volume of medium was added to the positive control group. The plate was centrifuged at 1000 rpm at room temperature for 1 min. The final DMSO concentration in the final compound was 0.5%. The plate was incubated in a thermostatic incubator at 37° C. with 5% CO2 for 7 days.
(§5) CellTiter-Glo® 3D was added to b) 384-well cell culture plate at 20 μL/well. The plate was shaken at 320 rpm in the dark for 20 min, and incubated at room temperature in the dark for 2 h. The luminescence values were read using an Envision multi-mode microplate reader.
(§6) The inhibition rates (IRs) of the test compounds were calculated according to the following formula: IR (%)=(1−(RLU compound−RLU blank control)/(RLU vehicle control−RLU blank control))×100%. The inhibition rates of the compounds at different concentrations were calculated in Excel, and then inhibition curves were plotted and relevant parameters including minimum inhibition rate, maximum inhibition rate and IC50 were calculated using GraphPad Prism software.

PSN-1 (G12R) = experiment: KRAS mutant cell proliferation inhibition assay (CellTiter-Glo 3D), PSN-1; assay type: cell-based; details: PSN-1 (G12R) cells, 7 days
Method: as §1, §2, §3, §4, §5, §6

H727 (G12V) = experiment: KRAS mutant cell proliferation inhibition assay (CellTiter-Glo 3D), H727; assay type: cell-based, human; details: H727 (G12V) cells, 7 days
Method: as §1, §2, §3, §4, §5, §6

AsPC-1 (G12D) = experiment: KRAS mutant cell proliferation inhibition assay (CellTiter-Glo 3D), AsPC-1; assay type: cell-based, human; details: AsPC-1 (G12D) cells, 7 days
Method: as §1, §2, §3, §4, §5, §6

SW480 (G12V) = experiment: KRAS mutant cell proliferation inhibition assay (CellTiter-Glo 3D), SW480; assay type: cell-based; details: SW480 (G12V) cells, 7 days
Method: as §1, §2, §3, §4, §5, §6

| IC50 (H727 (G12V); Homo sapiens, NCI-H727, 168 h) | IC50 (AsPC-1 (G12D); Homo sapiens, ASPC1, 168 h) | Structure (SMILES) | IC50 (MNK1 (WT); Homo sapiens, 168 h) | IC50 (PSN-1 (G12R); Homo sapiens, PSN1, 168 h) | other results |
| --- | --- | --- | --- | --- | --- |
| 141 nM | 33.6 nM | CN(C)C(=O)c1cc2n(n1)CCCN(c1nc(OC[C@@]34CCCN3C[C@@]3(CC3(F)F)C4)nc3c(F)c(-c4cc(N)cc(Cl)c4C(F)(F)F)ncc13)C2 [Example A-25, 5-(7-(5-Amino-3-chloro-2-(trifluoromethyl)phenyl)-2-(((1S,7a'S)-2,2-difluorodihydro-1′H,3′H-spiro[cyclopropane-1,2′-pyrrolizin]-7a′ (5′H)-yl)methoxy)-8-fluoropyrido[4,3-d]pyrimidin-4-yl)-N,N-dimethyl-5,6,7,8-tetrahydro-4H-pyrazolo[1,5-a][1,4]diazepine-2-carboxamide] | 66.3 nM | > 10000 nM |  |
| 119 nM | 31.6 nM | CCc1c(F)ccc2cc(O)cc(-c3ncc4c(N5CCOCC(C)(O)C5)nc(OC[C@@]56CCCN5C[C@@]5(CC5(F)F)C6)nc4c3F)c12 (stereo partly drawn) [Example A-38, 4-(2-(((1S,7a'S)-2,2-Difluorodihydro-1′H,3′H-spiro[cyclopropane-1,2′-pyrrolizin]-7a′ (5′H)-yl)methoxy)-7-(8-ethyl-7-fluoro-3-hydroxynaphthalen-1-yl)-8-fluoropyrido[4,3-d]pyrimidin-4-yl)-6-methyl-1.4-oxazenan-6-ol] | 21.4 nM | > 10000 nM |  |
|  |  | CCc1c(F)ccc2cc(O)cc(-c3ncc4c(N5CCC[C@@](C)(O)C5)nc(OCC56CCCN5CC5(C6)CC5(F)F)nc4c3F)c12 (stereo in doubt) [Example A-13B, (R)-1-(2-(((trans)-2,2-difluorodihydro-l′H,3′H-spiro[cyclopropane-1,2′-pyrrolizin]-7a′ (5′H)-yl)methoxy)-7-(8-ethyl-7-fluoro-3-hydroxynaphthalen-1-yl)-8-fluoropyrido[4,3-d]pyrimidin-4-yl)-3-methylpiperidin-3-ol] |  |  | IC50 (MNK1 (WT)): 12.9 nM; IC50 (PSN-1 (G12R); read-out: PSN1 IC50): 506 nM; IC50 (H727 (G12V)): 51.7 nM; IC50 (AsPC-1 (G12D)): 18.8 nM |
| 242 nM | 61.1 nM | Nc1cc(Cl)c(C(F)(F)F)c(-c2ncc3c(N4CCCC5(CCO5)C4)nc(OC[C@@]45CCCN4C[C@@]4(CC4(F)F)C5)nc3c2F)c1 (stereo partly drawn) [Example A-14, 3-Chloro-5-(2-(((1S,7a'S)-2,2-difluorodihydro-1′H,3′H-spiro[cyclopropane-1,2′-pyrrolizin]-7a′ (5′H)-yl)methoxy)-8-fluoro-4-(1-oxa-6-azaspiro[3.5]nonan-6-yl)pyrido[4,3-d]pyrimidin-7-yl)-4-(trifluoromethyl)aniline] | 133 nM | > 10000 nM |  |
| 127 nM | 26.9 nM | CCc1c(F)ccc2cc(O)cc(N3CCc4c(nc(OCC56CCCN5C[C@@]5(C6)CC5(F)F)nc4N4CCCn5nc(C(=O)N(C)C)cc5C4)C3)c12 (stereo in doubt) [Example B-14, 5-(2-(((1R,7a′R)-2,2-Difluorodihydro-1′H,3′H-spiro[cyclopropane-1,2′-pyrrolizin]-7a′ (5′H)-yl)methoxy)-7-(8-ethyl-7-fluoro-3-hydroxynaphthalen-1-yl)-5,6,7,8-tetrahydropyrido[3,4-d]pyrimidin-4-yl)-N,N-dimethyl-5,6,7,8-tetrahydro-4H-pyrazolo[1,5-a][1,4]diazepine-2-carboxamide hydrochloride] | 92.3 nM | 7560 nM |  |
| 35.9 nM | 23.2 nM | CCc1c(F)ccc2cc(O)cc(-c3ncc4c(N5CCC[C@]6(C5)NC(=O)NC6=O)nc(OC[C@@]56CCCN5C[C@@]5(CC5(F)F)C6)nc4c3F)c12 [Example A-27, (R)-7-(2-(((1S,7a'S)-2,2-Difluorodihydro-1′H,3′H-spiro[cyclopropane-1,2′-pyrrolizin]-7a′ (5′H)-yl)methoxy)-7-(8-ethyl-7-fluoro-3-hydroxynaphthalen-1-yl)-8-fluoropyrido[4,3-d]pyrimidin-4-yl)-1,3,7-triazaspiro[4.5]decane-2,4-dione] | 5.35 nM | 79.7 nM |  |
| 450 nM | 164 nM | C#Cc1c(F)ccc2cc(O)cc(-c3ncc4c(N5CCCC6(CCO6)C5)nc(OC[C@@]56CCCN5C[C@@]5(CC5(F)F)C6)nc4c3F)c12 (stereo partly drawn) [Example A-15, 4-(2-(((1.S,7a'S)-2,2-difluorodihydro-1′H,3′H-spiro[cyclopropane-1,2′-pyrrolizin]-7a′ (5′H)-yl)methoxy)-8-fluoro-4-(1-oxa-6-azaspiro[3.5]nonan-6-yl)pyrido[4,3-d]pyrimidin-7-yl)-5-ethynyl-6-fluoronanhthalen-2-ol] | 171 nM | > 10000 nM |  |
|  | 25.1 nM | C#Cc1c(F)ccc2cc(O)cc(-c3ncc4c(N(C)[C@H]5C[C@@H]5F)nc(OC[C@@]56CCCN5C[C@@]5(CC5(F)F)C6)nc4c3F)c12 [Example A-44, 4-(2-(((15,7a'S)-2,2-Difluorodihydro-1′H,3′H-spiro[cyclopropane-1,2′-pyrrolizin]-7a′ (5′H)-yl)methoxy)-8-fluoro-4-(((trans)-2-fluorocyclopropyl)(methyl)amino)pyrido[4,3-d]pyrimidin-7-yl)-5-ethynyl-6-fluoronaphthalen-2-ol] |  |  | IC50 (SW480 (G12V); Homo sapiens, 168 h): 7.13 nM |
| 47.3 nM | 8.98 nM | CCc1c(F)ccc2cc(O)cc(N3CCc4c(nc(OC[C@@]56CCCN5C[C@@]5(CC5(F)F)C6)nc4N4CCCn5nc(C(=O)N(C)C)cc5C4)C3)c12 [Example B-13, 5-(2-(((1S,7a'S)-2,2-Difluorodihydro-1′H,3′H-spiro[cyclopropane-1,2′-pyrrolizin]-7a′ (5′H)-yl)methoxy)-7-(8-ethyl-7-fluoro-3-hydroxynaphthalen-1-yl)-5,6,7,8-tetrahydropyrido[3,4-d]pyrimidin-4-yl)-N,N-dimethyl-5,6,7,8-tetrahydro-4H-pyrazolo[1,5-a][1,4]diazepine-2-carboxamide] | 24.3 nM | 2350 nM |  |
| 7370 nM | > 1000 nM | CCc1c(F)ccc2cc(O)cc(-c3ncc4c(N5CCC[C@@]6(C5)NC(=O)NC6=O)nc(OC[C@@]56CCCN5C[C@@]5(CC5(F)F)C6)nc4c3F)c12 [Example A-26, (S)-7-(2-(((1S,7a'S)-2,2-Difluorodihydro-1′H,3′H-spiro[cyclopropane-1,2′-pyrrolizin]-7a′ (5′H)-yl)methoxy)-7-(8-ethyl-7-fluoro-3-hydroxynaphthalen-1-yl)-8-fluoropyrido[4,3-d]pyrimidin-4-yl)-1,3,7-triazaspiro[4.5]decane-2,4-dione] | 1620 nM | > 10000 nM |  |
|  |  | CCc1c(F)ccc2cc(O)cc(-c3ncc4c(N5CCC[C@@]6(CCO6)C5)nc(OC[C@@]56CCCN5C[C@@]5(CC5(F)F)C6)nc4c3F)c12 [Example A-16A, 4-(2-(((15,7a'S)-2,2-difluorodihydro-1′H,3′H-spiro[cyclopropane-1,2′-pyrrolizin]-7a′ (5′H)-yl)methoxy)-8-fluoro-4-((R)-1-oxa-6-azaspiro[3.5]nonan-6-yl)pyrido[4,3-d]pyrimidin-7-yl)-5-ethyl-6-fluoronaphthalen-2-ol] |  |  | IC50 (SW480 (G12V)): 11.1 nM; IC50 (AsPC-1 (G12D)): 5.7 nM |
|  | 74.4 nM | CCc1c(F)ccc2cc(O)cc(-c3ncc4c(N(C)[C@H]5C[C@@H]5F)nc(OC[C@@]56CCCN5C[C@@]5(CC5(F)F)C6)nc4c3F)c12 [Example A-45, 4-(2-(((1,5,7a'S)-2,2-Difluorodihydro-1′H,3′H-spiro[cyclopropane-1,2′-pyrrolizin]-7a′ (5′H)-yl)methoxy)-8-fluoro-4-(((trans)-2-fluorocyclopropyl)(methyl)amino)pyrido[4,3-d]pyrimidin-7-yl)-5-ethyl-6-fluoronaphthalen-2-ol] |  |  | IC50 (SW480 (G12V); Homo sapiens, 168 h): 41 nM |
| 604 nM | 293 nM | CC1(O)COCCN(c2nc(OC[C@@]34CCCN3C[C@@]3(CC3(F)F)C4)nc3c(F)c(-c4cc(N)cc(Cl)c4C(F)(F)F)ncc23)C1 (stereo partly drawn) [Example A-39, 4-(7-(5-Amino-3-chloro-2-(trifluoromethyl)phenyl)-2-(((1S,7a'S)-2,2-difluorodihydro-1′H,3′H-spiro[cyclopropane-1,2′-pyrrolizin]-7a′ (5′H)-yl)methoxy)-8-fluoropyrido[4,3-d]pyrimidin-4-yl)-6-methyl-1.4-oxazenan-6-ol] | 273 nM | > 10000 nM |  |
|  | 27.6 nM | CCc1c(F)ccc2cc(O)cc(-c3ncc4c(N5CCCOC6CC65)nc(OC[C@@]56CCCN5C[C@@]5(CC5(F)F)C6)nc4c3F)c12 (stereo partly drawn) [Example A-28, 4-(4-(2-Oxa-6-azabicyclo[5.1.0]octan-6-yl)-2-(((1S,7a'S)-2,2-difluorodihydro-1′H,3′ H-spiro[cyclopropane-1,2′-pyrrolizin]-7a′ (5′H)-yl)methoxy)-8-fluoropyrido[4,3-d]pyrimidin-7-yl)-5-ethyl-6-fluoronaphthalen-2-ol] |  |  | IC50 (SW480 (G12V); Homo sapiens, 168 h): 37.3 nM |
